Test [1] relates to Staphylococcus saprophyticus. Put plainly: pH change of sample effluent after exposure of Staphylococcus saprophyticus to anti-infective (ISFET sensor system, FIG. 10). The note with it: Staphylococcus saprophyticus from fluid sample; pH of sample effluent 60 minutes after exposure. The format is cell-based. The source says:
In these examples, Staphylococcus saprophyticus can be one of the infectious agents 102 present in the fluid sample 124 applied or introduced to the system 100.

Test [2] relates to E. coli. As to the kind of experiment: pH change of sample effluent after exposure of E. coli to anti-infective (ISFET sensor system, FIG. 9). The note with it: for concentration of anti-infective to which the E. coli is resistant (change in pH): E. coli from fluid sample, pH of sample effluent 60 minutes after exposure. The format is cell-based. The source says:
FIG. 9 illustrates experimental results of experiments conducted using the methods and system 100 described herein. The graphs in FIG. 9 show a change in the solution characteristic 136 of the measured liquid 402, such as the sample effluent 134, monitored by the system 100 at a specific point in time. In this case, the graphs in FIG. 9 show the change in the solution characteristic 136 of the measured liquid 402 sixty (60) minutes after an anti-infective 104 is introduced to the filter 110, the substrate wells 200, or a combination thereof comprising the infectious agent 102.
In this example, E. coli can be one of the infectious agents 102 present in the fluid sample 124 applied or introduced to the system 100. […] An insignificant change in the solution characteristic 136 can be a change below a statistically significant percentage or threshold value.

As for `CC1(C)S[C@@H]2[C@H](NC(=O)[C@H](N)c3ccccc3)C(=O)N2[C@H]1C(=O)O` [ampicillin], in test [1], the “concentration of anti-infective to which the Staphylococcus saprophyticus is resistant (change in pH)” value is given as “up to 50 μg/ml”.
For the compound `O=C(O)c1cn(C2CC2)c2cc(N3CCNCC3)c(F)cc2c1=O` [ciprofloxacin], in test [2], the “concentration of anti-infective to which the E. coli is resistant (change in pH)” value is recorded as “approximately 0.1 μg/ml”.
For the compound `O=C1CN(/N=C/c2ccc([N+](=O)[O-])o2)C(=O)N1` [nitrofurantoin], the “concentration of anti-infective to which the E. coli is resistant (change in pH)” value in test [2] is given as “approximately 1 μg/ml”. Further, the MIC in test [2] (Escherichia coli, 1 h, read-out: minimal inhibitory concentration (MIC)) was determined as 1 µg/mL. Moreover, in test [1], the “concentration of anti-infective at which the Staphylococcus saprophyticus is susceptible” value is given as “higher than 1 μg/ml” and the “concentration of anti-infective to which the Staphylococcus saprophyticus is resistant (change in pH)” value is recorded as “approximately 1 μg/ml”.

The values above are taken from patent US9944969B2, “Devices, systems and methods for detecting viable infectious agents in a fluid sample” (eSense, LLC, priority 2015, dated 2018).
